The values that follow come from ChEMBL document CHEMBL2321730, “Development of κ opioid receptor antagonists” (J Med Chem, 2013).

Where a SMILES comes first, the peptide text is derived from it. [ ]: non-standard residue; d: D form.

For test [1], the target named is Kappa-type opioid receptor (Rattus norvegicus, UniProt P34975). The test is described as follows: Displacement of [3H]diprenorphine from rat cloned KOR expressed in CHO cells after 90 mins by scintillation counting analysis. A general note: In a radioligand displacement assay an active substance lowers the binding of a labelled ligand.
Test [2] deals with Mus musculus. The test is described as follows: Antinociceptive activity in C57B1/6J mouse at 10 nmol, icv administered 80 mins prior to U50488 addition by warm water tail withdrawal assay. The format is functional.
Test [3] relates to Rattus norvegicus. Put plainly: In vivo receptor occupancy at DOR in po dosed Harlan Sprague-Dawley rat brain after 5.5 hrs by LC/MS/MS analysis. The format is functional.
The test system of test [4] is Rattus norvegicus. Put plainly: In vivo receptor occupancy at MOR in po dosed Harlan Sprague-Dawley rat brain after 5.5 hrs by LC/MS/MS analysis. The format is functional.
The target in test [5] is T1, Kappa-type opioid receptor (Homo sapiens, UniProt P41145). Put plainly: Inhibition of dynorphin A (1-13) NH2 binding to KOR (unknown origin) by adenylyl cyclase assay. The format is functional.
The nature of test [6]: Displacement of DPDPE from DOR in guinea pig brain membrane fraction after 30 mins by scintillation counting analysis. The format is cell membranes, Cavia porcellus.
The subject of test [7] is Mus musculus. Put plainly: Antinociceptive activity in icv dosed C57B1/6J mouse assessed as tail withdrawal latency measured in every 10 mins for 1 hr by warm water tail withdrawal assay. The format is functional, organism-based.
A further test deals with Mu-type opioid receptor (Homo sapiens, UniProt P35372). The test is described as follows: Antagonist activity at MOR (unknown origin) by [35S]GTPgammaS binding assay.
The target of test [8] is T1, Kappa-type opioid receptor. The test is described as follows: Antagonist activity at KOR (unknown origin) by [35S]GTPgammaS binding assay. (GTPγS resists hydrolysis and so accumulates on activated G proteins.)
Test [9] addresses T1, Kappa-type opioid receptor. The test is described as follows: Binding affinity to KOR (unknown origin).
For test [10], the target named is Delta-type opioid receptor (Homo sapiens, UniProt P41143). Put plainly: Antagonist activity at DOR (unknown origin) by [35S]GTPgammaS assay. The format is functional.
Chain of Delta-type opioid receptor (P41143 whole entry): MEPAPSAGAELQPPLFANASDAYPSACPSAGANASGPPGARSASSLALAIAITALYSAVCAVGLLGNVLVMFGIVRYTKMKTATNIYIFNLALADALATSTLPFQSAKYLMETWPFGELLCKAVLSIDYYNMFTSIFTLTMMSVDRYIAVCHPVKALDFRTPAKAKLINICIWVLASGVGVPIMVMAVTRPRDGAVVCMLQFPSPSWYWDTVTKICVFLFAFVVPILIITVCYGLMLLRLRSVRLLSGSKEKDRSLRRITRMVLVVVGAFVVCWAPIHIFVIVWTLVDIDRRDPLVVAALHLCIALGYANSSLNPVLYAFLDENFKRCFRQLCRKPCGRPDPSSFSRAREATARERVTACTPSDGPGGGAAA

T1 sequence (P41145 whole entry): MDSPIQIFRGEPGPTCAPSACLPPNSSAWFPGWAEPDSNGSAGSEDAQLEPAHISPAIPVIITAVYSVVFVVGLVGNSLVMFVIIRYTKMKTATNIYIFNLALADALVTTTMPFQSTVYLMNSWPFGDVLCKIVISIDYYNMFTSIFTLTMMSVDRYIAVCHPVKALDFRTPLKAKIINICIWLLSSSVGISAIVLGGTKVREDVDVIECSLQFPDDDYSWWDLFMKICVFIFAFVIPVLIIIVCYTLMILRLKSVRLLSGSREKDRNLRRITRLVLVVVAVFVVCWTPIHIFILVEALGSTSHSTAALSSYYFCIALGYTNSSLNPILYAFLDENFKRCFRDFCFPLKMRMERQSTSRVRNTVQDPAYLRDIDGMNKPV
Chain of Kappa-type opioid receptor (Rattus norvegicus, UniProt P34975) (P34975 whole entry): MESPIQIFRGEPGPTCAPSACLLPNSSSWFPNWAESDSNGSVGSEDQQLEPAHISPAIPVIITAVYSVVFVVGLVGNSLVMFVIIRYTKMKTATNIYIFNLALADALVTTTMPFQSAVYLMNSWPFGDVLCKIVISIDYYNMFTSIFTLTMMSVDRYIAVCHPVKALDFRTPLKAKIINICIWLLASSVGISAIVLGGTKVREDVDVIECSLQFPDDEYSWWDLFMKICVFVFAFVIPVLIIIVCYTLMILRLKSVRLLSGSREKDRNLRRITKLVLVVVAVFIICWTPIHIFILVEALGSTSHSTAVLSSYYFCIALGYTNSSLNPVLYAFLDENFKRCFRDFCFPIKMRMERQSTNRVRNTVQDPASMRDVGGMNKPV
Chain of Mu-type opioid receptor (P35372 whole entry): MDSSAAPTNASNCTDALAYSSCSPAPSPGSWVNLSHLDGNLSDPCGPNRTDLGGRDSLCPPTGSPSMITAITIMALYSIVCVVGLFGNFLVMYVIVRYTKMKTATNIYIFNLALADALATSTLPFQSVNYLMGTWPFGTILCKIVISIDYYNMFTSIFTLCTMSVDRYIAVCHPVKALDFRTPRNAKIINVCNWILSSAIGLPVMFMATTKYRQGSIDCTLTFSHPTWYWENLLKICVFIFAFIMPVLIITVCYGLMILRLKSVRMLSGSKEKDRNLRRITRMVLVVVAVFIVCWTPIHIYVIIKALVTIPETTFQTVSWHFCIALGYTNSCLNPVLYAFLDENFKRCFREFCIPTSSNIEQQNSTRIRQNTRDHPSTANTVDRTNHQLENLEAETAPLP

As a reminder, the Ki is the dissociation constant of the complex between target and ligand, obtained from inhibition or displacement. In the case of `O=C1N[C@H](Cc2c[nH]c3ccccc23)C(=O)N[C@@H](Cc2ccccc2)C(=O)N2CCC[C@@H]2C(=O)N[C@H]1Cc1ccccc1` (cyclo(F[dP]F[dW])), in test [1], the affinity corresponds to a Ki of 30.6 nM. The compound further came in with an Activity in the test with Mus musculus [2] of 10%.

What is called ED50 is the dose that gives a 50% effect, or the effect in half of the subjects. High values mean a need for a large dose, low ones an effect at a small dose. As for `Cc1cc(C)cc([C@@H]2CCCN2Cc2ccc(Oc3ccc(C(N)=O)cc3F)cc2)c1` [ATICAPRANT], the ED50 in the test with Rattus norvegicus [3] and in the test on Rattus norvegicus [4] was > 30 mg/kg throughout.

The compound `CC[C@H](C)[C@@H]1NC(=O)[C@H](CCCNC(=N)N)NC(=O)[C@@H](NC(=O)[C@H](Cc2ccccc2)NC(=O)CNC(=O)CNC(=O)[C@H](Cc2ccc(O)cc2)NCc2ccccc2)CC(=O)NC[C@@H](C(=O)N[C@@H](CCCNC(=N)N)C(=O)N2CCC[C@H]2C(=O)N[C@@H](CCCCN)C(N)=O)NC1=O` showed a Kb in [5] of 84 nM.

For orientation: IC50 means the point on the concentration scale where inhibition reaches its midpoint. A higher IC50 goes with lower potency. In turn, `O=C1N[C@@H](Cc2ccccc2)C(=O)N2CCC[C@@H]2C(=O)N[C@@H](Cc2ccccc2)C(=O)N[C@H]1Cc1c[nH]c2ccccc12` (cyclo(FWF[dP])) gave a half-maximal inhibitory concentration (IC50) in [6] of 2600 nM. Besides, the affinity in test [1], expressed as Ki, was 35.4 nM. Also, the EC50 in the test with Mus musculus [7] is reported as 3.71 nmol.

On to `O=C(Nc1cccc(NC(=O)c2cccc(N3CCCCC3)c2)c1)c1cccc(OC2CCN(CC3CC3)CC2)c1`, for which the IC50 is > 30000 nM at Mu-type opioid receptor, 77 nM in [8] and > 30000 nM in [10]. For the same compound, affinity in [9] was put at a Ki of 0.5 nM.
